{
  "source": "ChEMBL document CHEMBL1154466",
  "about": "“3D and quantum QSAR of non-benzodiazepine compounds” (Eur J Med Chem, 2008)",
  "note": "Values joined by “and” are separate entries in the source; they are usually repeats but may differ in a detail not shown here. Identical values can stand only once.",
  "data": [
    {"assay": "Displacement of [3H]diazepam from benzodiazepine receptor", "values": [
      {"smiles": "CCOC(=O)c1ncc2c(c1COC)-c1cc(O)ccc1C2", "pIC50": 9.05},
      {"smiles": "CCCOc1cc2c(cn1)Cc1ccccc1-2", "pIC50": 7.96},
      {"smiles": "Nc1cc2c(cn1)Cc1ccccc1-2", "pIC50": 4.6},
      {"smiles": "Oc1cc2c(cn1)Cc1ccccc1-2", "pIC50": 5.4},
      {"smiles": "CCOC(=O)c1ncc2c(c1COC)-c1cc(OCc3ccccc3)ccc1C2C", "note": "(centres undefined)", "pIC50": 6.02},
      {"smiles": "Clc1cc2c(cn1)Cc1ccccc1-2", "pIC50": 7.35},
      {"smiles": "O=[N+]([O-])c1cc2c(cn1)Cc1ccccc1-2", "pIC50": 6.9},
      {"smiles": "S=C=Nc1cc2c(cn1)Cc1ccccc1-2", "pIC50": 8.1},
      {"smiles": "CCOC(=O)c1ncc2c(c1CC)-c1cc(OCc3ccccc3)ccc1C2", "pIC50": 7.66},
      {"smiles": "CCOC(=O)c1cc2c(cn1)Cc1ccc(OCc3ccccc3)cc1-2", "pIC50": 8.05},
      {"smiles": "CCOC(=O)c1ncc2c(c1COC)-c1cc(OCc3ccccc3)ccc1C2", "pIC50": 9},
      {"smiles": "COc1cc2c(cn1)Cc1ccccc1-2", "pIC50": 6.91},
      {"smiles": "CCOC(=O)c1ncc2c(c1COC)-c1cc(OC)ccc1C2", "pIC50": 9.3},
      {"smiles": "CCOC(=O)c1ncc2c(c1COC)-c1ccccc1C2", "pIC50": 8.64},
      {"smiles": "CCOc1cc2c(cn1)Cc1ccccc1-2", "pIC50": 7.62},
      {"smiles": "COC(=O)c1cc2c(cn1)Cc1ccccc1-2", "pIC50": 8.3},
      {"smiles": "c1ccc2c(c1)Cc1cnccc1-2", "pIC50": 5.79}
    ]},
    {"assay": "Displacement of [3H]diazepam from benzodiazepine receptor in rat brain", "format": "tissue-based", "values": [
      {"smiles": "CN(C)c1ncnc2c1ncn2Cc1ccccc1Cl", "pIC50": 4.89},
      {"smiles": "CN(C)c1ncnc2c1nc(Br)n2Cc1cccc(NS(C)(=O)=O)c1", "pIC50": 5.82},
      {"smiles": "CN(C)c1ncnc2c1nc(O)n2Cc1cccc(NC=O)c1", "pIC50": 6.89},
      {"smiles": "CNc1nc2c(N(C)C)ncnc2n1Cc1cccc(NC=O)c1", "pIC50": 6.44},
      {"smiles": "CN(C)c1ncnc2c1nc(O)n2Cc1cccc(N)c1", "pIC50": 5.74},
      {"smiles": "CN(C)c1ncnc2c1nc(N(C)C)n2Cc1cccc(NC=O)c1", "pIC50": 6.96},
      {"smiles": "CNc1nc2c(N(C)C)ncnc2n1Cc1ccccc1", "pIC50": 4.77},
      {"smiles": "CN(C)c1ncnc2c1ncn2Cc1cccc(NC=O)c1", "pIC50": 7.47},
      {"smiles": "CN(C)c1ncnc2c1nc(Cl)n2Cc1cccc(N)c1", "pIC50": 6.72},
      {"smiles": "COC(=O)Nc1cccc(Cn2c(Br)nc3c(N(C)C)ncnc32)c1", "pIC50": 5.28},
      {"smiles": "COc1nc2c(N(C)C)ncnc2n1Cc1cccc(N)c1", "pIC50": 6},
      {"smiles": "CN(C)c1ncnc2c1nc(N(C)C)n2Cc1ccccc1", "pIC50": 5.24},
      {"smiles": "COc1nc2c(N(C)C)ncnc2n1Cc1ccccc1", "pIC50": 5.27},
      {"smiles": "CC(C)(C)OC(=O)c1cc2c3ccccc3nc-2c[nH]1", "pIC50": 8},
      {"smiles": "CNc1nc2c(N(C)C)ncnc2n1Cc1cccc(N)c1", "pIC50": 5.14},
      {"smiles": "c1ccc(COc2nccc3c2[nH]c2ccccc23)cc1", "pIC50": 6},
      {"smiles": "CCOC(=O)c1cc2c(cn1)[nH]c1ccccc12", "pIC50": 8.3},
      {"smiles": "CCc1nc(C(=O)OC)cc2c1[nH]c1ccccc12", "pIC50": 5.12},
      {"smiles": "CCC(C)Oc1nccc2c1[nH]c1ccccc12", "note": "(centres undefined)", "pIC50": 6.33},
      {"smiles": "CC(C)CCOc1nccc2c1[nH]c1ccccc12", "pIC50": 6.27},
      {"smiles": "CC(C)Oc1cc2c(cn1)[nH]c1ccccc12", "pIC50": 6.29},
      {"smiles": "CCCCOc1cc2c(cn1)[nH]c1ccccc12", "pIC50": 7.01},
      {"smiles": "CC(C)(C)COc1nccc2c1[nH]c1ccccc12", "pIC50": 7.02},
      {"smiles": "COc1cc2c(cn1)[nH]c1ccccc12", "pIC50": 6.91},
      {"smiles": "Clc1cc2c(cn1)[nH]c1ccccc12", "pIC50": 7.35},
      {"smiles": "CCOc1cc2c(cn1)[nH]c1ccccc12", "pIC50": 7.62},
      {"smiles": "CCCOc1cc2c(cn1)[nH]c1ccccc12", "pIC50": 7.96},
      {"smiles": "CC(C)(C)C(=O)c1nccc2c1[nH]c1ccccc12", "pIC50": 6.45},
      {"smiles": "CC(C)COc1nccc2c1[nH]c1ccccc12", "pIC50": 7.03},
      {"smiles": "CCCC(=O)c1cc2c(cn1)[nH]c1ccccc12", "pIC50": 7.64},
      {"smiles": "CCCCc1cc2c(cn1)[nH]c1ccccc12", "pIC50": 6.64},
      {"smiles": "O=[N+]([O-])c1cc2c3ccccc3nc-2c[nH]1", "pIC50": 6.9},
      {"smiles": "CN(C)c1ncnc2c1nc(Br)n2Cc1cccc(NC=O)c1", "pIC50": 7.96},
      {"smiles": "CN(C)c1ncnc2c1nc(N(C)C)n2Cc1cccc(N)c1", "pIC50": 6.22},
      {"smiles": "Cc1nc2c(N(C)C)ncnc2n1Cc1ccccc1", "pIC50": 5.07},
      {"smiles": "CN(C)c1ncnc2c1nc(Br)n2Cc1cccc(N)c1", "pIC50": 6.96},
      {"smiles": "CC(=O)Nc1cccc(Cn2c(Br)nc3c(N(C)C)ncnc32)c1", "pIC50": 6.08},
      {"smiles": "CN(C)c1ncnc2c1nc(Br)n2Cc1ccccc1", "pIC50": 5.52},
      {"smiles": "CN(C)c1ncnc2c1nc(Br)n2Cc1cccc(NC(N)=O)c1", "pIC50": 7.6},
      {"smiles": "CN(C)c1ncnc2c1nc(Br)n2Cc1cccc(NC(=O)c2ccccc2)c1", "pIC50": 5.1},
      {"smiles": "CC(C)(C)COC(=O)c1cc2c3ccccc3nc-2c[nH]1", "pIC50": 6.12},
      {"smiles": "CN(C)c1ncnc2c1ncn2Cc1ccccc1", "pIC50": 4.89},
      {"smiles": "CN(C)c1ncnc2c1ncn2Cc1ccccc1F", "pIC50": 5.27},
      {"smiles": "CN(C)c1ncnc2c1ncn2Cc1cccc(F)c1", "pIC50": 5.14},
      {"smiles": "CN(C)c1ncnc2c1ncn2Cc1cccc(O)c1", "pIC50": 5.92},
      {"smiles": "CN(C)c1ncnc2c1ncn2Cc1cccc(N)c1", "pIC50": 6.05},
      {"smiles": "CC(=O)Oc1cccc(Cn2cnc3c(N(C)C)ncnc32)c1", "pIC50": 6.36},
      {"smiles": "CN(C)c1ncnc2c1ncn2Cc1cccc(OC(=O)C(C)(C)C)c1", "pIC50": 5.8},
      {"smiles": "COc1ccccc1Cn1cnc2c(N(C)C)ncnc21", "pIC50": 4.7},
      {"smiles": "CN(C)c1ncnc2c1ncn2Cc1cccc(CO)c1", "pIC50": 5.3},
      {"smiles": "COC(=O)c1cc2c(cn1)[nH]c1ccccc12", "note": "[BETA-CCM]", "pIC50": 8.3},
      {"smiles": "Cc1nccc2c1[nH]c1ccccc12", "note": "[HARMAN]", "pIC50": 4.91},
      {"smiles": "c1ccc2c(c1)[nH]c1cnccc12", "note": "[NORHARMANE]", "pIC50": 5.79}
    ]},
    {"assay": "Displacement of [3H]flunitrazepam from benzodiazepine receptor in rat forebrain", "values": [
      {"smiles": "CCCCc1c(OC)nc2nc(C(=O)c3ccccc3)cn2c1CC", "pIC50": 7.469},
      {"smiles": "CCCCc1cc(OC)nc2nc(C(=O)c3ccccc3)cn12", "pIC50": 6.469},
      {"smiles": "CCc1cc(OC)nc2nc(C(=O)c3ccccc3)cn12", "pIC50": 6.53},
      {"smiles": "CCCc1c(SC)nc2nc(C(=O)c3ccccc3)cn2c1CC", "pIC50": 7.328},
      {"smiles": "CCc1c(SC)nc2nc(C(=O)c3ccccc3)cn2c1C", "pIC50": 7.921},
      {"smiles": "CCCc1c(OC)nc2nc(C(=O)c3ccccc3)cn2c1CC", "pIC50": 7.469},
      {"smiles": "CSc1cc(C)n2cc(C(=O)c3ccccc3)nc2n1", "pIC50": 6.721},
      {"smiles": "CCCc1c(OC)nc2nc(C(=O)c3ccccc3)cn2c1C", "pIC50": 7.071},
      {"smiles": "COc1nc2nc(C(=O)c3ccccc3)cn2c(C)c1OC", "pIC50": 6},
      {"smiles": "CCc1cn2cc(C(=O)c3ccccc3)nc2nc1OC", "pIC50": 5.824},
      {"smiles": "C=CCc1c(SC)nc2nc(C(=O)c3ccccc3)cn2c1C", "pIC50": 8.097},
      {"smiles": "CCCCc1c(OC)nc2nc(C(=O)c3ccccc3)cn2c1C", "pIC50": 7.377},
      {"smiles": "CCc1c(OC)nc2nc(C(=O)c3ccccc3)cn2c1CC", "pIC50": 6.971},
      {"smiles": "CCCc1cc(OC)nc2nc(C(=O)c3ccccc3)cn12", "pIC50": 6.272},
      {"smiles": "COc1cc(C)n2cc(C(=O)c3ccccc3)nc2n1", "pIC50": 6.097},
      {"smiles": "CCCc1cc(SC)nc2nc(C(=O)c3ccccc3)cn12", "pIC50": 7.051},
      {"smiles": "COc1nc2nc(C(=O)c3ccccc3)cn2c(C)c1CC1=CC1", "pIC50": "7.523 and 7.347"},
      {"smiles": "CCc1c(CC2=CC2)c(OC)nc2nc(C(=O)c3ccccc3)cn12", "pIC50": 7.377},
      {"smiles": "CCc1c(OC)nc2nc(C(=O)c3ccccc3)cn2c1C", "note": "[DIVAPLON]", "pIC50": 7.252}
    ]}
  ]
}
